The results in this text go back to patent US20200308162A1, “DRUGS AND COMPOSITIONS FOR OCULAR DELIVERY” (Graybug Vision, Inc., priority 2017, published 2020).

A short description of series [1]: Drug solubility in water, DMSO and DCM (HPLC of filtered supernatant). The conditions noted are these: for Solubility Water: 50 mg/mL target concentration; for solubility: thermodynamic from solid.
Protocol: For each test, approximately 5-10 mg was transferred to a 10 mL glass vial. Aqueous or organic solvent was added to each vial to achieve an overall concentration of 50 mg/mL. After vortexing aggressively for 2-3 minutes and sonicating in a bath sonicator for 5 minutes, undissolved drug was spun down at 1200 rpm for 5 minutes to generate a pellet. The supernatant was collected and filtered through a 0.2 μm nylon syringe filter into HPLC vials for drug content analysis. Drug concentration was determined by comparing against a standard calibration curve.
Series [2] is described as follows: Drug release kinetics of Timolol and ethacrynic acid prodrugs from polymer microparticles. Type of series: physicochemical. Conditions: microparticles; 78/22(PLA 5A/PLGA8515 4.5A) and 65/20/15(PLA 4A/PLGA6515 4.5A/PLGA5050 4A) polymer blends; FIG. 5. How it is done:
The effect of polymer composition including monomer ratio and molecular weight, polymer end-groups (ester or acid), inherent viscosity and polymer blend ratios on particle degradation and drug release kinetics of Timolol-O-ethyl fumurate (17) was evaluated and is illustrated in FIG. 5. The rate of particle degradation was slowed and drug release was prolonged when the mole % of DL-lactide over glycolide was increased. By incorporating polymers with different monomer ratios (i.e., PLA, PLGA8515, PLGA525, PLGA5050 wherein 8515 refers to 85% DL-lactide and 15% glycolide) into the particles, it is possible to fine-tune the degradation rate of the particles to achieve a linear rate of drug release from the particles to minimize burst or lag and to extend the duration of release. […] The 78/22(PLA 5A/PLGA8515 4.5A) and 65/20/15(PLA 4A/PLGA6515 4.5A/PLGA5050 4A) polymer blends generated ideal particles for a 3-6 month linear release formulation. […] The rate of release was independent of the salt form. […] Thus, release rate is not solely dictated by the physicochemical properties of the linker, but rather must be attributed to a combination of parameters that may include linker type and site of linker conjugation.
FIG. 6 illustrates the release kinetics of ethacrynic acid-PLA(n=4)-ethyl ester (1) from PLGA microparticles. The drug was released over a period of approximately 66 days.
FIG. 8 and FIG. 9 illustrate the release kinetics of ethacrynic acid-PLA(n=4)-ethyl ester (1) and ethacrynic acid-PLA(n=6)-ethyl ester (25), respectively, from PLGA microparticles. The drug was released from a number of formulations over a period of greater than 90 days. […] Particles generated with 1% PVA in PBS was compared against particles generated in 1% PVA in water (FIG. 10).
Based upon these initial formulation screens, the formulation comprising of 1% mPEG-PLGA and 99% PLA100 4.5A:PLGA8515 5A (77:22) was selected as the lead formulation for ECA-PLA(n=4) (1) and ECA-PLA(n=6) (25) prodrugs. The particles were prepared in 1% PVA in water. The release profiles for the lead ECA-PLA(n=4) (1) and ECA-PLA(=6) (25) particle formulations are illustrated in FIG. 11.

A short description of series [3]: In vitro drug release kinetics of Timolol prodrug microparticles in PBS and 1% Tween 20 (pH 7.4) at 37° C. Type of series: physicochemical. Conditions: PBS and 1% Tween 20 (pH 7.4), 37° C. How it is done:
In vitro drug release kinetics were evaluated in a release medium composed of PBS and 1% Tween 20 (pH 7.4). Briefly, 10 mg of particles was suspended in 4 mL of the release medium The particle suspension was incubated on an orbital shaker at 150 rpm at 37° C. At various time points, 3 mL of release media was collected, and the suspension was replenished with 3 mL of fresh release media. Collected release samples were frozen and stored at −80° C. until analysis for drug content. The collected samples were filtered through a 0.2 μm syringe filter and analyzed by RP-HPLC. FIG. 17-FIG. 22 illustrate the total and parent Timolol release profile for the microparticles encapsulating bis-prodrugs of Timolol of Table 11.

A short description of series [4]: In vitro stability of ethacrynic acid prodrugs at 37° C. The format is physicochemical. The source says: As evidenced, both prodrugs of ethacrynic acid degrade steadily over the 6 day period. As the ester linkages are hydrolyzed, the parent compound is generated in a linear rate. The rate of degradation to the parent compound is faster for the shorter […] in comparison to the degradation kinetics for ethacrynic acid-PLA(n=4)-ethyl ester (1).
Approximately 94% of the ECA-PLA(n=4) prodrug (1) has been converted to free ECA by day 6, in comparison to only 56% for ECA-PLA(n=6) (25). Also, by day 6, all the initial prodrug has been degraded into intermediates and free drug respectively.

The mark [5] stands for this setting: DMSO, organic solvent or mixture.
Where [6] appears, read: DCM, organic solvent or mixture.

Entries after “also recorded” stand apart in the source; their conditions may differ. Where a name gives a salt, the structure may show the parent alone.

With “Dorzolamide-Stearylfumurate [Compound 15]”, in series [1] (DMSO), the “Solubility DMSO” value is above 100 mg/mL. The “Solubility Water” value in series [1] (water) was above 50 mg/mL.

As to `CCOC(=O)/C=C/C(=O)O[C@@H](CNC(C)(C)C)COc1nsnc1N1CCOCC1` [Compound 17, Timolol-O-Ethylfumurate], in series [2], the linear release profile was 3-6 month. In addition, the solubility in series [1] (setting [5]) was above 50 mg/mL. In addition, in series [1] (water), the solubility was below 1 mg/mL and the “Solubility Water” value is below 1.0 mg/mL.

Take `CCOC(=O)/C=C\C(=O)O[C@@H](CNC(C)(C)C)COc1nsnc1N1CCOCC1.O=C(O)/C=C\C(=O)O` [Compound 8, Timolol-O-Ethylmaleate-Maleic Acid]: the solubility in series [1] (setting [5]) was above 50 mg/mL; in series [1] (water) it was below 1 mg/mL.

As for `CCOC(=O)CCC(=O)O[C@@H](CNC(C)(C)C)COc1nsnc1N1CCOCC1.Cl` [Compound 6, Timolol-O-Ethylsuccinate HCL], the solubility in series [1] (setting [5]) was above 50 mg/mL; in series [1] (water) it was 6.25 mg/mL.

Turning to `CC(=O)OC(C)C(=O)OC(C)C(=O)OC(C)C(=O)OC(C)C(=O)N(C[C@@H](COc1nsnc1N1CCOCC1)OC(=O)C(C)OC(=O)C(C)OC(C)=O)C(C)(C)C` (stereo partly shown) [Compound 55, Timolol-Bis-N-Acetyl-PLA (n = 4)-O-Acetyl PLA (n = 2)], the “parent Timolol released relative to total release of prodrug and intermediates” value in series [3] is “significantly less”.

Consider `CCOC(=O)/C=C\C(=O)OC(CNC(C)(C)C)COc1nsnc1N1CCOCC1` (stereo not shown) [Compound 18, Timolol-O-Ethyl Maleate], for which the solubility is above 100 mg/mL in series [1] (setting [5]) and above 25 mg/mL in series [1] (water).

As to `CCN[C@H]1C[C@H](C)S(=O)(=O)c2sc(S(N)(=O)=O)cc21` [Dorzolamide, reference compound], the figures for the solubility in series [1] (setting [6]), in series [1] (setting [5]) and in series [1] (water) were below 1 mg/mL, below 1 mg/mL and above 50 mg/mL, respectively.

For the compound `CC(=O)OC(C)C(=O)OC(C)C(=O)OC(C)C(=O)OC(C)C(=O)O[C@H](COc1nsnc1N1CCOCC1)CN(C(=O)C(C)OC(=O)C(C)OC(C)=O)C(C)(C)C` (stereo partly shown) [Compound 56, Timolol-Bis-N-Acetyl-PLA (n = 2)-O-Acetyl-PLA (n = 4)], in series [3], the “parent Timolol released relative to total release of prodrug and intermediates” value is recorded as “significantly less”.

With `CCN[C@H]1C[C@H](C)S(=O)(=O)c2sc(S(=O)(=O)NC(=O)/C=C/C(=O)OCC)cc21` [Compound 14, Dorzolamide-Ethylfumurate], the solubility in series [1] (setting [6]) is above 100 mg/mL; in series [1] (setting [5]), above 100 mg/mL; in series [1] (water) it was below 1 mg/mL.

Regarding `CC(C)(C)NC[C@@H](COc1nsnc1N1CCOCC1)OC(=O)/C=C\C(=O)O` [Compound 7, Timolol-O-Maleate], the solubility in series [1] (setting [5]) and in series [1] (water) was above 50 mg/mL in each case.

Regarding “Timolol-Bis-Acetyl PLA (n = 4) [Compound 54]”, the “parent Timolol released relative to total release of prodrug and intermediates” value in series [3] was “significantly less”.

Turning to `C=C(CC)C(=O)c1ccc(OCC(=O)O[C@@H](C)C(=O)O[C@@H](C)C(=O)OCC)c(Cl)c1Cl` [Compound 2, 2-{2-[2,3-Dichloro-4-(2-methylene-butyryl)-phenoxy]-acetoxy}-propionic acid 1-ethoxycarbonyl-ethyl ester], the “generation of parent ethacrynic acid as ester linkages are hydrolyzed” value in series [4] (37° C. over 6 days) is given as “generated at a linear rate”. Besides, the “rate of degradation to the parent compound / conversion to the free drug” value in series [4] (37° C., 6 days, comparison between prodrugs) is “degraded faster; also recorded: significantly faster”. Further, the values for the solubility in series [1] (setting [5]) and in series [1] (water) were above 50 mg/mL and below 1 mg/mL, respectively.

Take `CC(C)(C)NC[C@@H](COc1nsnc1N1CCOCC1)OC(=O)CCC(=O)O` [Compound 4, Succinic acid mono-[(S)-1-(tert-butylamino-methyl)-2-(4-morpholin-4-yl-[1,2,5]thiadiazol-3-yloxy)-ethyl] ester]: the solubility in series [1] (setting [5]) and in series [1] (water) was above 50 mg/mL throughout.

For `C=C(CC)C(=O)c1ccc(OCC(=O)O[C@@H](C)C(=O)O[C@@H](C)C(=O)O[C@@H](C)C(=O)O[C@@H](C)C(=O)O[C@@H](C)C(=O)O[C@@H](C)C(=O)O[C@@H](C)C(=O)O[C@@H](C)C(=O)OCC)c(Cl)c1Cl` [Compound 26], the solubility in series [1] (setting [5]) is above 50 mg/mL; in series [1] (water) it was below 0.1 mg/mL.

As to Dorzolamide-Laurylmaleate [Compound 16], in series [1] (DMSO), the “Solubility DMSO” value was above 50 mg/mL. Also, the “Solubility Water” value in series [1] (water) was below 1.0 mg/mL.

Regarding `CCCCCCCCCCCCOC(=O)/C=C/C(=O)O[C@@H](CNC(C)(C)C)COc1nsnc1N1CCOCC1` [Compound 12, Timolol-O-Laurylfumurate-Maleate], the values for the solubility in series [1] (setting [5]) and in series [1] (water) were above 100 mg/mL and below 1 mg/mL, respectively.

Turning to `CCOC(=O)CCC(=O)O[C@@H](CNC(C)(C)C)COc1nsnc1N1CCOCC1.O=C(O)/C=C\C(=O)O` [Compound 5, Timolol-O-Ethylsuccinate Maleate], the solubility in series [1] (setting [5]) was above 50 mg/mL; in series [1] (water) it was 12.5 mg/mL.

In general, solubility refers to how much of the substance goes into solution per volume.
